Experiments:
Assay in all cases: relative viability (nuclei count vs DMSO), 5 days (fraction); higher = more cells survive
[1] = compound: CCC1=CN=CN=C1N2CCN(CC2)CC3=NC4=C(N3)C=C(C=C4)C(F)(F)F + CC1(C)CCC(c2ccc(Cl)cc2)=C(CN2CCN(c3ccc(C(=O)NS(=O)(=O)c4ccc(N[C@H](CCN5CCOCC5)CSc5ccccc5)c(S(=O)(=O)C(F)(F)F)c4)cc3)CC2)C1 [Navitoclax] (partner 0.5 µM)
Procedure, shortened: (§1)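 Medians of duplicate plates are given as relative viability. That measure is the nuclei count in treated wells divided by the count in vehicle wells. Counts were taken on 4× images of lung cancer cell lines in 1536-well plates, 5 days after pin-tool dosing the day after seeding with one drug alone or a fixed anchor-drug dose plus five library-drug doses (not always all listed) in √10 steps.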

[2] = compound: CCC1=CN=CN=C1N2CCN(CC2)CC3=NC4=C(N3)C=C(C=C4)C(F)(F)F + CS(=O)(=O)CCNCc1ccc(-c2ccc3ncnc(Nc4ccc(OCc5cccc(F)c5)c(Cl)c4)c3c2)o1 [Lapatinib] (partner 2 µM)
Procedure, shortened: as §1

[3] = compound: CCn1c(-c2nonc2N)nc2cnc(Oc3cccc(NC(=O)c4ccc(OCCN5CCOCC5)cc4)c3)cc21 + O=C(CCCCCCC(=O)Nc1ccccc1)NO [Vorinostat] (partner 1 µM)
Procedure, shortened: as §1

[4] = compound: N=C1NC(=O)/C(=C/c2ccc(O)cc2)S1 [Mirin] + Cc1nc(Nc2ncc(C(=O)Nc3c(C)cccc3Cl)s2)cc(N2CCN(CCO)CC2)n1 [Dasatinib] (partner 0.075 µM)
Procedure, shortened: as §1

| Cell Line | relative viability ([1]; first compound 0.04 µM) | relative viability ([1]; first compound 0.1265 µM) | relative viability ([1]; first compound 0.4 µM) | relative viability ([1]; first compound 1.265 µM) | relative viability ([1]; first compound 4 µM) | relative viability ([2]; first compound 0.04 µM) | relative viability ([2]; first compound 0.1265 µM) | relative viability ([2]; first compound 0.4 µM) | relative viability ([2]; first compound 1.265 µM) | relative viability ([2]; first compound 4 µM) | relative viability ([3]; first compound 0.04 µM) | relative viability ([3]; first compound 0.1265 µM) | relative viability ([3]; first compound 0.4 µM) | relative viability ([3]; first compound 1.265 µM) | relative viability ([3]; first compound 4 µM) | relative viability ([4]; first compound 0.25 µM) | relative viability ([4]; first compound 0.7906 µM) | relative viability ([4]; first compound 2.5 µM) | relative viability ([4]; first compound 7.906 µM) | relative viability ([4]; first compound 25 µM) |
| --- | --- | --- | --- | --- | --- | --- | --- | --- | --- | --- | --- | --- | --- | --- | --- | --- | --- | --- | --- | --- |
| NCI-H1666 | 0.975 | 0.836 | 0.962 | 0.817 | 0.846 | 0.625 | 0.579 | 0.482 | 0.544 | 0.616 | 1.13 | 1.05 | 1.12 | 1.05 | 1.03 | 0.93 | 0.807 | 0.846 | 0.709 | 0.681 |
| NCI-H1734 | 0.852 | 0.839 | 0.856 | – | 0.907 | 1.03 | 1.07 | 1.08 | – | 1.04 | 0.937 | 0.838 | 0.586 | 0.412 | 0.399 | 0.484 | 0.436 | 0.469 | 0.45 | 0.438 |
| NCI-H1755 | 1.01 | 0.947 | 0.955 | 0.606 | 0.889 | 1.07 | 0.93 | 0.981 | 0.924 | 1.1 | 0.843 | 0.796 | 0.615 | 0.577 | 0.506 | 0.396 | 0.383 | 0.391 | 0.389 | 0.436 |
| NCI-H1793 | 0.381 | 0.447 | 0.363 | – | 0.435 | 0.581 | 0.652 | 0.534 | – | 0.635 | 0.721 | 0.712 | 0.602 | 0.424 | 0.496 | 0.481 | – | 0.391 | 0.409 | 0.344 |
| NCI-H1915 | 0.819 | 0.735 | 0.847 | 0.722 | 0.809 | 0.927 | 0.89 | 0.995 | 0.957 | 1.06 | 0.507 | 0.52 | 0.472 | 0.244 | 0.225 | 0.308 | – | 0.332 | 0.342 | 0.31 |
| NCI-H1944 | 0.97 | 0.948 | 1 | – | 0.916 | 0.976 | 0.691 | 0.767 | – | 0.875 | 0.662 | 0.572 | 0.463 | 0.481 | 0.261 | 0.218 | 0.244 | 0.2 | 0.218 | 0.224 |
| NCI-H1975 | 1.15 | 1.08 | 1.06 | 0.879 | 0.931 | 1.16 | 0.824 | 0.851 | 0.739 | 0.846 | 0.666 | 0.623 | 0.554 | 0.37 | 0.273 | 0.437 | 0.482 | 0.384 | 0.417 | 0.354 |
| NCI-H1993 | 1.16 | 0.934 | 0.792 | 0.817 | 0.778 | 0.777 | 0.842 | 0.69 | 0.8 | 0.747 | 0.991 | 0.764 | 0.649 | 0.697 | 0.697 | 0.518 | – | 0.678 | 0.455 | 0.556 |
| NCI-H2009 | 1.19 | 1.16 | 1.09 | 1.1 | 1.09 | 1.07 | 1 | 0.894 | 0.715 | 0.808 | 0.632 | 0.582 | 0.56 | 0.429 | 0.277 | 0.292 | 0.341 | 0.323 | 0.227 | 0.139 |
| NCI-H2023 | 0.987 | 0.941 | 0.962 | 1.03 | 1.12 | 0.716 | 0.765 | 0.749 | 0.527 | 0.763 | 1.02 | 0.675 | 0.669 | 0.429 | 0.334 | 0.562 | 0.541 | 0.548 | 0.463 | 0.335 |
| NCI-H2085 | 1.11 | 1.02 | 1.21 | 1.18 | 0.911 | 0.713 | 0.704 | 0.797 | 0.571 | 0.784 | 0.735 | 0.633 | 0.579 | 0.54 | 0.585 | 0.229 | 0.207 | 0.28 | 0.252 | 0.237 |
| NCI-H2087 | 1.03 | 0.982 | 0.914 | 0.871 | 0.723 | 1.07 | 0.963 | 1.08 | 0.914 | 0.818 | 0.776 | 0.584 | 0.668 | 0.565 | 0.509 | 1.06 | 0.869 | 0.752 | 0.958 | 0.677 |
| NCI-H2126 | 0.818 | 0.818 | 0.839 | 0.794 | 0.867 | 0.772 | 0.713 | 0.708 | 0.736 | 0.838 | 1.04 | 0.879 | 0.608 | 0.894 | 0.82 | 0.631 | 0.58 | 0.601 | 0.517 | 0.514 |
| NCI-H2170 | 0.561 | 0.69 | 0.534 | 0.608 | 0.608 | 0.277 | 0.263 | 0.267 | 0.27 | 0.296 | 0.797 | 0.8 | 0.763 | 0.538 | 0.484 | 0.551 | 0.498 | 0.519 | 0.489 | 0.468 |
| NCI-H2228 | 0.996 | 0.847 | 0.979 | 0.888 | 0.747 | 0.949 | 1.11 | 0.79 | 1.14 | 1.06 | 0.842 | 0.524 | 0.891 | 0.543 | 0.456 | 0.594 | 0.458 | 0.516 | 0.448 | 0.412 |
| NCI-H2347 | 0.711 | 0.733 | 0.783 | 0.665 | 0.729 | 1.06 | 0.793 | 0.985 | 0.828 | 1.1 | 0.654 | 0.656 | 0.488 | 0.348 | 0.427 | 0.336 | 0.316 | 0.344 | 0.287 | 0.273 |
| NCI-H2405 | 0.86 | 0.937 | 0.834 | – | 0.997 | 1.04 | 1.17 | 1.11 | – | 1.2 | 0.938 | 0.488 | 0.264 | 0.239 | 0.238 | 0.195 | 0.252 | 0.206 | 0.206 | 0.192 |
| NCI-H3122 | 1.02 | 0.996 | 0.997 | 0.987 | 1.03 | 1.11 | 0.992 | 1 | 1.03 | 0.961 | 1.1 | 0.971 | 0.671 | 0.781 | 0.61 | 0.892 | 0.419 | 0.807 | 0.685 | 0.665 |
| PC-3 [JPC-3] | 0.912 | 0.781 | 0.745 | 0.733 | 0.775 | 0.473 | 0.425 | 0.374 | 0.441 | 0.523 | 0.919 | 0.701 | 0.713 | 0.549 | 0.692 | 1.03 | 0.979 | 1.04 | 0.981 | 1.08 |
| PC-14 | 1.02 | 1.03 | 1.01 | 0.984 | 0.982 | 0.34 | 0.264 | 0.304 | 0.246 | 0.329 | 0.912 | 0.612 | 0.64 | 0.554 | 0.62 | 0.243 | 0.248 | 0.26 | – | 0.295 |
| RERF-LC-KJ | 0.906 | 0.887 | 0.956 | 0.698 | 0.719 | 0.81 | 0.811 | 0.863 | 0.79 | 0.825 | 0.762 | 0.728 | 0.589 | 0.409 | 0.521 | 0.958 | 0.831 | 0.843 | 0.685 | 0.688 |
| SK-LU-1 | 0.78 | 0.762 | 0.929 | 0.697 | 0.868 | 0.924 | 0.855 | 0.926 | – | 0.902 | 0.895 | 0.654 | 0.593 | 0.422 | 0.42 | 0.209 | 0.163 | 0.161 | 0.209 | 0.224 |
| SK-MES-1 | 1.15 | 1.22 | 1.07 | 1.2 | 1.31 | 0.487 | 0.432 | 0.749 | 0.43 | 0.428 | 1.22 | 0.968 | 0.868 | 0.819 | 0.597 | 0.368 | 0.341 | 0.446 | 0.475 | 0.389 |
| SW 1573 | 0.95 | 1.09 | 0.709 | 0.801 | 0.891 | 1.12 | 0.949 | 1 | 1 | 1.08 | 0.966 | 0.534 | 0.37 | 0.304 | 0.237 | 0.466 | 0.506 | 0.605 | 0.361 | 0.295 |
